The values that follow come from ChEMBL document CHEMBL1126437, “Synthesis and cytotoxicity of enantiomeric pairs of duocarmycin a and its 2-epimer” (Bioorg Med Chem Lett, 1992).

In brackets after ≈: the same amount, converted by molar mass.

As a reminder, the IC50 is the concentration needed to halve the response being measured.

In this assay the test system is P388. As to the kind of experiment: In vitro evaluation for cytotoxicity against P388 murine leukemia. It counts as functional, cell-based, Mus musculus.

Consider `COC(=O)[C@@]1(C)N=C2C(=O)C=C3N(C(=O)c4cc5cc(OC)c(OC)c(OC)c5[nH]4)C[C@@H]4C[C@]34C2=C1O`, for which the IC50 (Mus musculus, P388, read-out: IC50) worked out at 0.3 ng/mL (≈ 0.591 nM).

In the case of `COC(=O)[C@]1(C)N=C2C(=O)C=C3N(C(=O)c4cc5cc(OC)c(OC)c(OC)c5[nH]4)C[C@H]4C[C@@]34C2=C1O`, the IC50 (p388) amounted to 0.002 ng/mL (≈ 0.00394 nM).
